These results are taken from patent US9029544B2, “Tricyclic pyridine derivatives, medicaments containing such compounds, their use and process for their preparation” (Boehringer Ingelheim International GmbH, priority 2010, dated 2015).

In this experiment the target is T1, Recombinant human CETP (Homo sapiens, UniProt P11597).
T1 construct: made in house; host or cells: CHO cells (secreted into conditioned medium)
T1 sequence (P11597 18-493): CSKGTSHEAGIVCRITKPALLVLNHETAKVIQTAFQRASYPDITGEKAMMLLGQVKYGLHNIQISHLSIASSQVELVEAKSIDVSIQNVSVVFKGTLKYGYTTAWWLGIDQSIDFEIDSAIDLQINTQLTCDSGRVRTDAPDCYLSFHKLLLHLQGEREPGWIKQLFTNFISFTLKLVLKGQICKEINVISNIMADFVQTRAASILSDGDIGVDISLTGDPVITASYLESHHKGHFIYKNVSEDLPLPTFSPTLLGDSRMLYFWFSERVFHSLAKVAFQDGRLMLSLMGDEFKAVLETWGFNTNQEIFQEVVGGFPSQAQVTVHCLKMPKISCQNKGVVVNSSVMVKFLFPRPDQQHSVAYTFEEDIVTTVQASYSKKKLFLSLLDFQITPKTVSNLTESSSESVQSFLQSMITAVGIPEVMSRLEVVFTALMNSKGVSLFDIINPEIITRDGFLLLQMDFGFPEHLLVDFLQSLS
The experiment can be described thus: CETP in vitro assay (fluorometric assay, Roar Biomedical; cholesterol ester transfer from HDL to LDL). It counts as biochemical. The conditions noted are these: recombinant human CETP from CHO cells; 3 hours at 37° C.; fluorescence 485/535 nm; compound concentrations between 1 nM and 30 μM; read-out: IC50 values for inhibition of CETP. As for the experimental part: CETP inhibitory activity of compounds of the present invention can be determined in a fluorometric assay purchased from Roar Biomedical, Inc. (New York, N.Y., USA). […] Recombinant human CETP was partially purified from medium conditioned by CETP expressing CHO cells. In a 384 well format 2.5 μl of compound solution in DMSO was combined with 2 μl of donor solution, 2 μl of acceptor solution and 0.8 μl of recombinant human CETP solution in a total volume of 100 μl with assay buffer and incubated for 3 hours at 37° C. The fluorescence intensity was measured at excitation wavelength of 485 nm and emission wavelength of 535 nm. IC50 values are calculated from dose effect curves from compound concentrations between 1 nM and 30 μM.

With `CC(C)c1nc2c(c3c1[C@@H](c1ccc(C(C)(C)C)cc1)OC31CCCC1)[C@@H](O)CC(C)(C)[C@H]2O` [4(3), (3′R,6′R,9′S)-3′-(4-tert-butylphenyl)-4′-isopropyl-7′,7′-dimethyl-6′,7′,8′,9′-tetrahydro-3′H-spiro[cyclopentane-1,1′-furo[3,4-c]quinoline]-6′,9′-diol], the IC50 is 21 nM.

With `CC(C)c1nc2c(c3c1[C@@H](c1ccc(C(F)(F)F)nc1)OC31CCOCC1)[C@@H](O)CC(C)(C)[C@H]2O` [5(5), (3R,6R,9S)-4-isopropyl-7,7-dimethyl-3-(6-(trifluoromethyl)pyridin-3-yl)-2′,3′,5′,6,6′,7,8,9-octahydro-3H-spiro[furo[3,4-c]quinoline-1,4′-pyran]-6,9-diol], the IC50 was 418 nM. Turning to `O[C@H]1CC2(CCC2)[C@@H](O)c2nc(C3CCOCC3)c3c(c21)C1(CCOCC1)O[C@@H]3c1ccc(C(F)(F)F)cc1` [4(16), (3R,6R,9S)-7,7-(propan-1,3-diyl)-4-(tetrahydro-2H-pyran-4-yl)-3-(4-(trifluoromethyl)phenyl)-2′,3′,5′,6,6′,7,8,9-octahydro-3H-spiro[furo[3,4-c]quinoline-1,4′-pyran]-6,9-diol], the IC50 came out at 44 nM. Consider `CC1(C)C[C@H](O)c2c(nc(C3CCOCC3)c3c2C2(CCOCC2)O[C@@H]3c2ccc(S(F)(F)(F)(F)F)cc2)[C@@H]1O` [4(12), (3R,6R,9S)-7,7-dimethyl-4-(tetrahydro-2H-pyran-4-yl)-3-(4-(pentafluorosulfanyl)phenyl)-2′,3′,5′,6,6′,7,8,9-octahydro-3H-spiro[furo[3,4-c]quinoline-1,4′-pyran]-6,9-diol], for which the IC50 stood at 70 nM. `CC(C)c1nc2c(c3c1[C@@H](c1ccc(C(F)(F)F)cn1)OC31CCOCC1)[C@@H](O)CC(C)(C)C2` [1(67), (3S,9S)-4-isopropyl-7,7-dimethyl-3-(5-(trifluoromethyl)pyridin-2-yl)-2′,3′,5′,6,6′,7,8,9-octahydro-3H-spiro[furo[3,4-c]quinoline-1,4′-pyran]-9-ol]: the IC50 came out at 161 nM. For the compound `CC(C)c1nc2c(c3c1[C@@H](c1ccc(C(F)(F)F)nc1)OC31CCOCC1)[C@@H](O)CC1(CCC1)C2` [1(52), (3R,9S)-4-isopropyl-7,7-(propan-1,3-diyl)-3-(6-(trifluoromethyl)pyridin-3-yl)-2′,3′,5′,6,6′,7,8,9-octahydro-3H-spiro[furo[3,4-c]quinoline-1,4′-pyran]-9-ol], the IC50 was 54 nM. For `CC(=O)O[C@H]1c2nc(C(C)C)c3c(c2[C@@H](O)CC1(C)C)C1(CCCC1)O[C@@H]3c1ccc(C(F)(F)F)nc1` [1(46), (3′R,6′R,9′S)-9′-hydroxy-4′-isopropyl-7′,7′-dimethyl-3′-(6-(trifluoromethyl)pyridin-3-yl)-6′,7′,8′,9′-tetrahydro-3′H-spiro[cyclopentane-1,1′-furo[3,4-c]quinoline]-6′-yl acetate], the IC50 is 1830 nM. On to `CC(C)c1nc2c(c3c1[C@@H](c1ccc(S(F)(F)(F)(F)F)cc1)OC31CCOCC1)[C@@H](O)CC1(CCC1)C2` [1(69), (3R,9S)-4-isopropyl-7,7-(propan-1,3-diyl)-3-(4-(pentafluorosulfanyl)phenyl)-2′,3′,5′,6,6′,7,8,9-octahydro-3H-spiro[furo[3,4-c]quinoline-1,4′-pyran]-9-ol], for which the IC50 worked out at 14 nM.

Take `CC(C)c1nc2c(c3c1[C@@H](c1ccc(C(F)(F)F)c(C#N)c1)OC31CCOCC1)[C@@H](O)CC1(CCC1)C2` [1(79), 5-((3R,9S)-9-hydroxy-4-isopropyl-7,7-(propan-1,3-diyl)-2′,3′,5′,6,6′,7,8,9-octahydro-3H-spiro[furo[3,4-c]quinoline-1,4′-pyran]-3-yl)-2-(trifluoromethyl)benzonitrile]: the IC50 amounted to 18 nM. On to `CC(C)c1nc2c(c3c1[C@@H](c1ccc(C(F)(F)F)cn1)OC31CCOCC1)[C@@H](O)CC(C)(C)[C@@H]2O` [5(3), (3S,6S,9S)-4-isopropyl-7,7-dimethyl-3-(5-(trifluoromethyl)pyridin-2-yl)-2′,3′,5′,6,6′,7,8,9-octahydro-3H-spiro[furo[3,4-c]quinoline-1,4′-pyran]-6,9-diol], for which the IC50 stood at 2700 nM. Under `CC(C)c1nc2c(c3c1[C@@H](c1ccc(C(C)(C)C)cc1)OC31CCCC1)[C@@H](O)CC1(CCC1)C2` [1(62), (3′R,9′S)-3′-(4-tert-butylphenyl)-4′-isopropyl-7′,7′-(propan-1,3-diyl)-6′,7′,8′,9′-tetrahydro-3′H-spiro[cyclopentane-1,1′-furo[3,4-c]quinolin]-9′-ol] stands 21 nM; under `CC(C)c1nc2c(c3c1[C@@H](c1ccc(S(F)(F)(F)(F)F)cc1)OC31CCOCC1)[C@@H](O)CC(C)(C)[C@H]2O` [4(7), (3R,6R,9S)-4-isopropyl-7,7-dimethyl-3-(4-(pentafluorosulfanyl)phenyl)-2′,3′,5′,6,6′,7,8,9-octahydro-3H-spiro[furo[3,4-c]quinoline-1,4′-pyran]-6,9-diol], 12 nM; under `CC(C)(C)c1ccc([C@H]2OC3(CCOCC3)c3c2c(C2CCOCC2)nc2c3[C@@H](O)CC(C)(C)[C@H]2O)cc1` [4(13), (3R,6R,9S)-3-(4-tert-butylphenyl)-7,7-dimethyl-4-(tetrahydro-2H-pyran-4-yl)-2′,3′,5′,6,6′,7,8,9-octahydro-3H-spiro[furo[3,4-c]quinoline-1,4′-pyran]-6,9-diol], 51 nM. Regarding `COC(C)c1nc2c(c3c1[C@@H](c1ccc(C(F)(F)F)cc1)OC31CCOCC1)[C@@H](O)CC(C)(C)C2` (stereo partly drawn) [1(81), (3R,9S)-4-(1-methoxyethyl)-7,7-dimethyl-3-(4-(trifluoromethyl)phenyl)-2′,3′,5′,6,6′,7,8,9-octahydro-3H-spiro[furo[3,4-c]quinoline-1,4′-pyran]-9-ol], the IC50 came out at 108 nM. In the case of `N#Cc1cc([C@H]2OC3(CCOCC3)c3c2c(C2CCOCC2)nc2c3[C@@H](O)CC3(CCC3)C2)ccc1C(F)(F)F` [1(72), 5-((3R,9S)-9-hydroxy-7,7-(propan-1,3-diyl)-4-(tetrahydro-2H-pyran-4-yl)-2′,3′,5′,6,6′,7,8,9-octahydro-3H-spiro[furo[3,4-c]quinoline-1,4′-pyran]-3-yl)-2-(trifluoromethyl)benzonitrile], the IC50 is 39 nM. For `CC1(C)Cc2nc(C3CCOCC3)c3c(c2[C@@H](O)C1)C1(CCOCC1)O[C@@H]3c1ccc(S(F)(F)(F)(F)F)cc1` [1(61), (3R,9S)-7,7-dimethyl-4-(tetrahydro-2H-pyran-4-yl)-3-(4-(pentafluorosulfanyl)phenyl)-2′,3′,5′,6,6′,7,8,9-octahydro-3H-spiro[furo[3,4-c]quinoline-1,4′-pyran]-9-ol], the IC50 is 66 nM. For `CC(C)c1nc2c(c3c1[C@@H](c1ccc(C(F)(F)F)cc1)OC31CCOCC1)[C@@H](O)CC1(CCC1)C2` [1(50), (3R,9S)-4-isopropyl-7,7-(propan-1,3-diyl)-3-(4-(trifluoromethyl)phenyl)-2′,3′,5′,6,6′,7,8,9-octahydro-3H-spiro[furo[3,4-c]quinoline-1,4′-pyran]-9-ol], the IC50 worked out at 7 nM. Under `CC(C)c1nc2c(c3c1[C@@H](c1ccc(C(F)(F)F)nc1)OC31CCCC1)[C@@H](O)CC(C)(C)[C@H]2O` [4(1), (3′R,6′R,9′S)-4′-isopropyl-7′,7′-dimethyl-3′-(6-(trifluoromethyl)pyridin-3-yl)-6′,7′,8′,9′-tetrahydro-3′H-spiro[cyclopentane-1,1′-furo[3,4-c]quinoline]-6′,9′-diol] stands 127 nM; under `CC(C)c1nc2c(c3c1[C@@H](c1ccc(C(F)(F)F)c(F)c1)OC31CCOCC1)[C@@H](O)CC(C)(C)[C@H]2O` [5(6), (3R,6R,9S)-3-(3-fluoro-4-(trifluoromethyl)phenyl)-4-isopropyl-7,7-dimethyl-2′,3′,5′,6,6′,7,8,9-octahydro-3H-spiro[furo[3,4-c]quinoline-1,4′-pyran]-6,9-diol], 13 nM; under `CC(C)c1nc2c(c3c1[C@@H](c1ccc(C(C)(C)C)cc1)OC31CCOCC1)[C@@H](O)CC1(CCC1)C2` [1(63), (3R,9S)-3-(4-tert-butylphenyl)-4-isopropyl-7,7-(propan-1,3-diyl)-2′,3′,5′,6,6′,7,8,9-octahydro-3H-spiro[furo[3,4-c]quinoline-1,4′-pyran]-9-ol], 6 nM. In the case of `CC1(C)Cc2nc(C3CCOCC3)c3c(c2[C@@H](O)C1)C1(CCOCC1)O[C@@H]3c1ccc(C(F)(F)F)nc1` [1(76), (3R,9S)-7,7-dimethyl-4-(tetrahydro-2H-pyran-4-yl)-3-(6-(trifluoromethyl)pyridin-3-yl)-2′,3′,5′,6,6′,7,8,9-octahydro-3H-spiro[furo[3,4-c]quinoline-1,4′-pyran]-9-ol], the IC50 is 886 nM. Regarding `CC(=O)O[C@H]1c2nc(C(C)C)c3c(c2[C@@H](O)CC1(C)C)C1(CCOCC1)O[C@@H]3c1ccc(C(F)(F)F)cc1` [1(48), (3R,6R,9S)-9-hydroxy-4-isopropyl-7,7-dimethyl-3-(4-(trifluoromethyl)phenyl)-2′,3′,5′,6,6′,7,8,9-octahydro-3H-spiro[furo[3,4-c]quinoline-1,4′-pyran]-6-yl acetate], the IC50 turned out to be 142 nM.
